Patent US12673947B2 (Cytosinlab Therapeutics Co., Ltd., priority 2020, dated 2026)
Counter-ions that a name gives are not always drawn.

Key:
[1] = system: MV4;11 cells; test: MV4;11 in vitro inhibition of proliferation assay (CellTiter-Glo, 72 hours); format: cell-based; conditions: Homo sapiens, MV4-11, 72 h, IC50 class, read-out: Inhibitory activity of cell proliferation MV4;11
From the text: Biological Test Example 2: MV4;11 In Vitro Inhibition of Proliferation Assay
The MV4;11 cell lines were purchased from the cell bank of the Chinese Academy of Sciences, IMDM medium (Gibco, catalog number 12440), fetal bovine serum (Gibco, catalog number 10099141C), penicillin-streptomycin antibiotics (Gibco, catalog number 15140122), DMSO (Sigma, catalog number D2650), Celltiter-Glo kit (CTG) (Promega, catalog number G7573), 384-well clear flat-bottom black cell culture plate (Corning, catalog number 3764), D300e digital dispenser (Tecan, catalog number D300e), SpectraMax i3x microplate reader (MOLECULAR DEVICES, catalog number i3x)
MV4;11 cell was cultivated in IMDM, 10% fetal bovine serum, 1% penicillin-streptomycin antibiotics, and cell density was kept less than 1.0*10E6 cells per ml to ensure that it was always in logarithmic growth phase. Cell viability was greater than 95%.
The compounds to be tested was diluted by 3 times from 10 uM with DMSO to 9 concentrations. 60 nl diluted compound was added to the cell culture plate and three duplicates were set up.
The prepared MV4;11 cell suspension was added to the 384-well plate, and 20 microliters of cell suspension was added per well, i.e., each well contained 2000 MV4;11 cells, of which the final concentration of DMSO was 0.3%. The cell culture plate was placed in 37° C. and incubated in a 5% carbon dioxide incubator for 72 hours.
20 μL of Promega CellTiter-Glo reagent was added to per well, and the plate was incubated at room temperature for 10 minutes when the luminescence signals were stable. SpectraMax i3x microplate reader was used to read signals.
The original data was converted into inhibition rate, and the IC50 value (half inhibition concentration) of the compound was determined by fitting the nonlinear four-parameter curve.

[2] = molecular target: T1, FLT3 (Homo sapiens, UniProt P36888); test: FLT3 kinase in vitro inhibitory activity experiment (Caliper mobility shift, conversion rate); format: biochemical; conditions: IC50 class, read-out: Enzyme activity FLT3
T1 construct: purchased Carna 08-145
T1 sequence (P36888 27-993): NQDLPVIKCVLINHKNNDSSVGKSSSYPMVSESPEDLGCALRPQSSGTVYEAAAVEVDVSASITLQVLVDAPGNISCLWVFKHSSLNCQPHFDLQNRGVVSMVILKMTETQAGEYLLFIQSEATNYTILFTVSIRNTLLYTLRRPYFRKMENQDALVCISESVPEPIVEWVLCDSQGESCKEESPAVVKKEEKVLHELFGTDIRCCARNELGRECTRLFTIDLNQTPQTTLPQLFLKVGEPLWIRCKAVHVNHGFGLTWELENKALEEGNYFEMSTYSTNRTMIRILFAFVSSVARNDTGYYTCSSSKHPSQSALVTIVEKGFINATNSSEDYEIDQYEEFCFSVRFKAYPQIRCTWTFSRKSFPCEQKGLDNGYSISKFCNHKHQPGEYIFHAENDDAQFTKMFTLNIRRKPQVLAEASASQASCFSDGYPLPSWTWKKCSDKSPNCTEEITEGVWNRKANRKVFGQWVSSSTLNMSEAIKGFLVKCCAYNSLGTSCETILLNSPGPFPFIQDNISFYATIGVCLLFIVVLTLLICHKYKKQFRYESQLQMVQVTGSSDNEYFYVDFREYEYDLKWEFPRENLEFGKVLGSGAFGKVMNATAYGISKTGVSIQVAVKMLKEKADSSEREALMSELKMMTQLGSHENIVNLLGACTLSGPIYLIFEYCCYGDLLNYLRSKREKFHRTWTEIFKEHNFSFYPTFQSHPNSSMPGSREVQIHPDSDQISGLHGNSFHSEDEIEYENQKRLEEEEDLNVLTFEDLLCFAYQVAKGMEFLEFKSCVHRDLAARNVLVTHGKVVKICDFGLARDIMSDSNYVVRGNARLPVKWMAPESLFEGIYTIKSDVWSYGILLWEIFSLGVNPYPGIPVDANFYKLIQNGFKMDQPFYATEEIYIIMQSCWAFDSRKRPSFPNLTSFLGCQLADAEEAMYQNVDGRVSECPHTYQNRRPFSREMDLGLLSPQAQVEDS
Procedure: Biological Test Example 1: FLT3 Kinase In Vitro Inhibitory Activity Experiment
Centrifuge (manufacturer: Eppendorf, model: 5430), microplate reader (manufacturer: Perkin Elmer, model: Caliper EZ Reader II), Echo 550 (manufacturer: Labcyte, model: Echo 550)
1. Kinase Reaction Process
• (1) 1×Kinase buffer was prepared. • (2) Preparation of the serial compound dilutions: the initial stock (the concentration of the tested compound was 1 μM) was diluted by 3-fold into 10 concentrations, and was single-well detected. The compounds were series diluted to solutions of 10 different concentration (100-folds final concentration) in 384-well plates. 250 nl of solution was transferred to each well of 384-well plate by Echo550. 100% DMSO (250 nl) was added to negative control wells and positive control wells respectively. • (3) Kinase solution (2.5 times final concentration) was prepared with 1×Kinase buffer. • (4) 10 μL of kinase solution (2.5 times final concentration) was added to compound wells and positive control wells respectively: 1×Kinase buffer (10 μL) was added to the negative control wells. • (5) The solution was centrifuged at 1000 rpm for 30 seconds, shaked and mixed, and incubated at room temperature for 10 minutes. • (6) The mixed solution of ATP and Kinase substrate 2 (25/15 times final concentration) was prepared with 1×Kinase buffer. • (7) 15 μL of mixed solution ATP and Kinase substrate 2 (25/15 times final concentration) was added to initiated the reaction. • (8) 384 well plate was centrifuged at 1000 rpm for 30 seconds, shaked and mixed, then incubated at room temperature for 30 minutes. • (9) Stop solution (30 μL) was added to stop kinase reaction, and the solution was centrifuged at 1000 rpm for 30 seconds, shaked and mixed. • (10) The conversion rate was read with Caliper EZ Reader II. 2. Data Analysis Formula for Calculation
Wherein: Conversion %_sample is the reading of the sample conversion; Conversion %_min: negative control well.

| Compound | IC50 [1] | IC50 [2] |
| --- | --- | --- |
| CCc1nc2c(N)ncc(-c3cccc(OC)c3)c2nc1NC1CCOCC1 [Compound 3] | > 500 nM | 10 to 100 nM |
| CCc1nc2c(Cl)ncc(-c3ccc(N4CCC(N5CCNCC5)CC4)c(OC)c3)c2nc1NC1CCOCC1 [Compound 11] | > 500 nM | 10 to 100 nM |
| CCc1nc2c(N)ncc(-c3ccc(N4CCC(N5CCN(C)CC5)CC4)nc3)c2nc1NC1CCOCC1 [Compound 21] | 100 to 500 nM | 10 to 100 nM |
| COc1cc(-c2cnc(N)c3nc(C)c(NC4CCOCC4)nc23)ccc1N1CCC(N2CCN(C)CC2)CC1 [Compound 26] | 100 to 500 nM | 10 to 100 nM |
| CCc1nc2c(N)ncc(-c3ccc(N4CCC(O)CC4)c(OC)c3)c2nc1NC1CCOCC1 [Compound 39] | 10 to 100 nM | ≤ 10 nM |
| CCc1nc2c(N)ncc(-c3cccc(CN4CCC(N5CCN(C)CC5)CC4)c3)c2nc1NC1CCOCC1 [Compound 43, 3-ethyl-8-(3-((4-(4-methylpiperazine-1-yl)piperidine-1-yl)methyl)phenyl)-N2-(tetrahydro-2H-pyran-4-yl)pyrido[3,4-b]pyrazine-2,5-diamine] | 100 to 500 nM | 10 to 100 nM |
| CCc1nc2c(N)ncc(-c3ccc(CN4CCC(N5CCN(C)CC5)CC4)c(OC)c3)c2nc1NC1CCOCC1 [Compound 44] | > 500 nM | 10 to 100 nM |
| CCc1nc2c(N)ncc(-c3ccc(N4CCC(CN5CCN(C)CC5)CC4)c(OC)c3)c2nc1NC1CCOCC1 [Compound 45, 3-ethyl-8-(3-methoxy-4-(4-((4-methylpiperazine-1-yl)methyl)piperidine-1-yl)phenyl)-N2-(tetrahydro-2H-pyran-4-yl)pyridino[3,4-b]pyrazine-2,5-diamine] | 10 to 100 nM | ≤ 10 nM |
| CCc1nc2c(N)ncc(-c3ccc(N4CCC(N5CCN(C)CC5)C4)c(OC)c3)c2nc1NC1CCOCC1 (stereo not drawn) [Compound 46] | 10 to 100 nM | ≤ 10 nM |
| CCc1nc2c(N)ncc(-c3ccc(N4CCC(N(C)CCN(C)C)CC4)c(OC)c3)c2nc1NC1CCOCC1 [Compound 48] | 10 to 100 nM | ≤ 10 nM |
| CCc1nc2c(N)ncc(-c3cnn(C4CCNCC4)c3)c2nc1NC1CCOCC1 [Compound 58] | 10 to 100 nM | ≤ 10 nM |
| CCc1nc2c(N)ncc(-c3ccc(N4CCC(N5CCN(C)CC5)CC4)c(OC)c3)c2nc1N[C@H]1CC[C@H](O)CC1 [Compound 65] | 10 to 100 nM | ≤ 10 nM |
| CCc1nc2c(N)ncc(-c3ccc(N4CCC(N5CCN(C)CC5)CC4)c(OC)c3)c2nc1NC1CCN(C)CC1 [Compound 66] | 10 to 100 nM | ≤ 10 nM |
| CCc1nc2c(N)ncc(-c3ccc(N4CCC(N5CCN(C)CC5)CC4)c(OC)c3)c2nc1NC1CCC(O)C1 (stereo not drawn) [Compound 67] | 10 to 100 nM | ≤ 10 nM |
| CCc1nc2c(N)ncc(-c3ccc(N4CCC(N5CCN(C)CC5)CC4)c(OC)c3)c2nc1NCC(C)(C)O [Compound 68] | 10 to 100 nM | ≤ 10 nM |

Now from value to compound:

| IC50 [1] | IC50 [2] | Compound |
| --- | --- | --- |
| 10 to 100 nM | ≤ 10 nM | CCc1nc2c(N)ncc(-c3ccc(N4CCC(N5CCN(C)CC5)CC4)cc3)c2nc1NC1CCOCC1 [Compound 7] |
| 10 to 100 nM | ≤ 10 nM | CCc1nc2c(N)ncc(-c3ccc(N4CCC(N5CCN(C)CC5)CC4)c(OC)c3)c2nc1NC1CCOCC1 [Compound 8, 3-ethyl-8-(3-methoxy-4-(4-(4-methylpiperazin-1-yl)piperidin-1-yl)phenyl)-N2-(tetrahydropyran-4-yl)pyrido[3,4-b]pyrazine-2,5-diamine trihydrochloride] |
| 10 to 100 nM | ≤ 10 nM | CCc1nc2c(N)ncc(-c3ccc(N4CCC(N5CCN(C)CC5)CC4)c(C)c3)c2nc1NC1CCOCC1 [Compound 13] |
| 10 to 100 nM | ≤ 10 nM | CCc1nc2c(N)ncc(-c3ccc(N4CCC(N5CCN(C)CC5)CC4)c(F)c3)c2nc1NC1CCOCC1 [Compound 14] |
| 10 to 100 nM | ≤ 10 nM | CCc1nc2c(N)ncc(-c3ccc(N4CCC(N5CCN(C)CC5)CC4)c(C#N)c3)c2nc1NC1CCOCC1 [Compound 15] |
| 10 to 100 nM | ≤ 10 nM | CCc1nc2c(N)ncc(-c3ccc(N4CCC(N5CCN(C)CC5)CC4)c(C(F)(F)F)c3)c2nc1NC1CCOCC1 [Compound 16] |
| 10 to 100 nM | ≤ 10 nM | CCc1nc2c(N)ncc(-c3ccc(N4CCC(N5CCN(C)CC5)CC4)c(OC(F)(F)F)c3)c2nc1NC1CCOCC1 [Compound 17] |
| 10 to 100 nM | ≤ 10 nM | CCc1nc2c(N)ncc(-c3ccc(N4CCC(N5CCN(C)CC5)CC4)c(OC(C)C)c3)c2nc1NC1CCOCC1 [Compound 22] |
| 10 to 100 nM | ≤ 10 nM | CCc1nc2c(N)ncc(-c3ccc(N4CCC(N5CCN(C)CC5)CC4)c(OCCOC)c3)c2nc1NC1CCOCC1 [Compound 23] |
| 10 to 100 nM | ≤ 10 nM | COc1cc(-c2cnc(N)c3nc(C(C)C)c(NC4CCOCC4)nc23)ccc1N1CCC(N2CCN(C)CC2)CC1 [Compound 27] |
| 10 to 100 nM | ≤ 10 nM | CCCc1nc2c(N)ncc(-c3ccc(N4CCC(N5CCN(C)CC5)CC4)c(OC)c3)c2nc1NC1CCOCC1 [Compound 28] |
| 10 to 100 nM | ≤ 10 nM | CCc1nc2c(N)ncc(-c3ccc(N4CCC5(CCN(C)CC5)CC4)c(C)c3)c2nc1NC1CCOCC1 [Compound 31] |
| 10 to 100 nM | ≤ 10 nM | CCc1nc2c(N)ncc(-c3ccc(N4CCC5(CCN(C)CC5)CC4)c(OC)c3)c2nc1NC1CCOCC1 [Compound 32] |
| 10 to 100 nM | ≤ 10 nM | CCc1nc2c(N)ncc(-c3ccc(N4CCC5(CC4)CN(C)C5)c(OC)c3)c2nc1NC1CCOCC1 [Compound 33] |
| 10 to 100 nM | ≤ 10 nM | CCc1nc2c(N)ncc(-c3ccc(N4CCC(N5CCNCC5)CC4)c(OC)c3)c2nc1NC1CCOCC1 [Compound 35] |
| 10 to 100 nM | ≤ 10 nM | CCc1nc2c(N)ncc(-c3ccc(N4CCN(C5CCN(C)CC5)CC4)c(OC)c3)c2nc1NC1CCOCC1 [Compound 36] |
| 10 to 100 nM | ≤ 10 nM | CCc1nc2c(N)ncc(-c3ccc(N4CCN(C)CC4)c(OC)c3)c2nc1NC1CCOCC1 [Compound 37] |
| 10 to 100 nM | ≤ 10 nM | CCc1nc2c(N)ncc(-c3ccc(N4CCOCC4)c(OC)c3)c2nc1NC1CCOCC1 [Compound 38] |
